Reference: publication PMC11642044 (International Journal of Molecular Sciences, 2024)

Legend:
Format in all cases: cell-based, human
JNK in U87-MG cells = assay: JNK phosphorylation in U87-MG by SK-N-MC-derived conditioned media (CM-SK); details: HOE-140 5 μM, 15 min pre-treatment
Procedure: (§1) These conditioned media were either immediately applied to SK-N-SH/SK-N-MC cells (80–100% confluence) in 6-well plates for 15 min, or subjected to heat treatment on a 96 °C heat block for 5 min, and then cooled to 37 °C before they were applied to the SK-N-SH/SK-N-MC cells for 15 min. […] For the SK-N-MC-derived conditioned media, SK-N-MC cells (80–100% confluence) in a 10 cm culture dish were serum-starved in 10 mL of MEM (without FBS), with 1 mL of the resulting conditioned medium being collected at indicated time points (15 min, 1 h, 3 h, 6 h). Simultaneously, U87-MG cells (80–100% confluence) in 12-well plates were serum-starved in MEM for 6 h, followed by pretreatment of […] (5 μM, 15 min), and then challenged with the SK-N-MC-derived conditioned media (mentioned above) for 10 min before cell lysis. […]
(§2) SDS-PAGE and Western blotting were performed as described in our previous studies. […] The amount of protein in each sample was determined by detergent compatible (DC) protein assay according to the supplier’s instruction (Bio-Rad, Hercules, CA, USA). […] Resolved proteins were detected by specific primary antibodies and horseradish peroxidase-conjugated secondary antisera. The level of β-actin was determined as an internal control.

JNK = assay: Stimulatory phosphorylation of JNK (Western blot), U87-MG; details: 5 μM HOE-140, 1 µM bradykinin, 10 min
Procedure: (§3) The resulting Ca^2+ signal profiles were monitored by FLIPR for 3 min.
(§4) SDS-PAGE and Western blotting were performed as described in our previous studies. In brief, cells in 6-well plates (5 × 10^5 cells/well) were lysed in 500 μL of ice-cold lysis buffer (50 mM Tris-HCl at pH 7.5 containing 100 mM NaCl, 5 mM EDTA, 40 mM NaP2O7, 1% Triton X-100, 1 mM dithiothreitol, 200 μM Na3VO4, 100 μM phenylmethylsulfonyl fluoride, 2 μg/mL leupeptin, 4 μg/mL aprotinin, and 0.7 μg/mL pepstatin) and then gently shaken for 30 min. The amount of protein in each sample was determined by detergent compatible (DC) protein assay according to the supplier’s instruction (Bio-Rad, Hercules, CA, USA). Clarified lysates (30 μg protein per sample) were resolved on 12% SDS-polyacrylamide gels and then transferred to nitrocellulose membranes (Westborough, MA, USA). Resolved proteins were detected by specific primary antibodies and horseradish peroxidase-conjugated secondary antisera. The level of β-actin was determined as an internal control. […] Chemiluminescence signals were then detected by ChemiDoc imaging systems (Bio-Rad, Hercules, CA, USA) with the subsequent band densities quantified by ImageJ (https://imagej.net/ij/) analysis software (National Institutes of Health, MD, USA). […]
(§5) Chemiluminescence signals were then detected by the ChemiDoc Imaging Systems (Bio-Rad, […]

p38 MAPK = assay: Stimulatory phosphorylation of p38 MAPK (Western blot), U87-MG; details: 5 μM HOE-140, 1 µM bradykinin, 10 min
Procedure: as §3, §4, §5

[1] = system: B2R-mediated LIF secretion in U87-MG cells; assay: Inhibition of bradykinin-induced LIF production (ELISA), U87-MG; details: 5 μM HOE-140, 30 min pre-treatment, bradykinin 1 µM, 24 h
Procedure: Conditioned media were analyzed for the presence of multiple cytokines by using the cytokine multiplex assay kits (Merck Millipore, MA, USA) as previously described. Briefly, a bead mixture with various capture antibodies (50 μL) was added to a 96-well microtiter plate, followed by 50 μL of cytokine standard mix or test sample and then 25 μL of a biotinylated detection antibody mixture. The mixtures were incubated for 30 min at 25 °C with gentle shaking. Unbound antibodies were removed by three gentle washes. Finally, 50 μL of streptavidin–PE solution was added and incubated for another 30 min with gentle shaking. The detection beads were then washed again and resuspended in 120 μL of reading buffer. The Bio-Plex™ 200 system (Bio-Rad Laboratories, Hercules, CA, USA) with the Bio-Plex manager software (version 5.0) was utilized for signal detection and data analysis. Curve fitting was applied to each standard curve according to the manufacturer’s manual and sample concentrations were interpolated from the standard curves. Individual detections for LIF and IL-6 were performed using the corresponding ELISA kits from Abcam (Cambridge, UK) according to the manufacturer’s instructions.
as §3

ERK in U87-MG cells = assay: ERK phosphorylation in U87-MG by SK-N-MC-derived conditioned media (CM-SK); details: HOE-140 5 μM, 15 min pre-treatment
Procedure: as §1, §2

p38 in U87-MG cells = assay: p38 phosphorylation in U87-MG by SK-N-MC-derived conditioned media (CM-SK); details: HOE-140 5 μM, 15 min pre-treatment
Procedure: as §1, §2

ERK = assay: Stimulatory phosphorylation of ERK (Western blot), U87-MG; details: 5 μM HOE-140, 1 µM bradykinin, 10 min
Procedure: as §3, §4, §5

HOE-140
inhibition of CM-SK-stimulated JNK phosphorylation (JNK in U87-MG cells): significantly inhibited | inhibition of bradykinin-induced JNK activation (JNK): completely abolished | inhibition of bradykinin-induced p38 MAPK activation (p38 MAPK): completely abolished | inhibition of bradykinin-induced LIF production [1]: blocked the ability of bradykinin to stimulate LIF production | inhibition of CM-SK-stimulated ERK phosphorylation (ERK in U87-MG cells): significantly inhibited | inhibition of CM-SK-stimulated p38 phosphorylation (p38 in U87-MG cells): significantly inhibited | inhibition of bradykinin-induced ERK activation (ERK): completely abolished
